{"source": "ChEMBL document CHEMBL2169819", "about": "“Synthesis and biological evaluation of 2-amino-3-(4-chlorobenzoyl)-4-[(4-arylpiperazin-1-yl)methyl]-5-substituted-thiophenes. effect of the 5-modification on allosteric enhancer activity at the A1 adenosine receptor” (J Med Chem, 2012)", "note": "Active and inactive are the calls of the source. The rule behind the calls is not given here.", "data": [{"target": "T1, Adenosine receptor A1 (Homo sapiens) (UniProt P30542)", "T1 sequence (whole entry)": "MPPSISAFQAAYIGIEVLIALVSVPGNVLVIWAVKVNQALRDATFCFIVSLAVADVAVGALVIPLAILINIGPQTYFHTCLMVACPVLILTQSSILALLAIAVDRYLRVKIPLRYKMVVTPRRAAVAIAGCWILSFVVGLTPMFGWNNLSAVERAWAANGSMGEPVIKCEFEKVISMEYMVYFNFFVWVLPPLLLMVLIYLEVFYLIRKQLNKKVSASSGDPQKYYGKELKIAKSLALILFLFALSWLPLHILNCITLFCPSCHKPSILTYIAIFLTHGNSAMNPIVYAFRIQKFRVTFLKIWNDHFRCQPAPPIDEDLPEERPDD", "assay": "Allosteric enhancing activity at human adenosine A1 receptor expressed in CHO cells assessed as increase in CCPA-induced [3H]DPCPX displacement at 10 uM after 90 mins relative to control", "assay_type": "cell-based", "values": [{"smiles": "Nc1sc(-c2ccc(Cl)cc2)c(CN2CCN(c3ccc(F)cc3)CC2)c1C(=O)c1ccc(Cl)cc1", "Ratio Ki": 8.3}, {"smiles": "Cc1sc(N)c(C(=O)c2cccc(C(F)(F)F)c2)c1C", "Ratio Ki": 1.6}, {"smiles": "Nc1sc(Br)c(CN2CCN(c3ccccc3)CC2)c1C(=O)c1ccc(Cl)cc1", "Ratio Ki": 4.5}, {"smiles": "Nc1sc(-c2ccc(Cl)cc2)c(CN2CCN(c3ccc(Cl)c(C(F)(F)F)c3)CC2)c1C(=O)c1ccc(Cl)cc1", "Ratio Ki": 8}, {"smiles": "CCc1sc(N)c(C(=O)c2ccc(Cl)cc2)c1CN1CCN(c2ccc(F)cc2)CC1", "Ratio Ki": 3.8}, {"smiles": "Nc1sc(Br)c(CN2CCN(c3ccc(F)cc3)CC2)c1C(=O)c1ccc(Cl)cc1", "Ratio Ki": 4.1}, {"smiles": "Nc1sc(-c2ccc(Cl)cc2)c(CN2CCN(c3cccc(C(F)(F)F)c3)CC2)c1C(=O)c1ccc(Cl)cc1", "Ratio Ki": 13}, {"smiles": "Cc1ccc(N2CCN(Cc3c(C)sc(N)c3C(=O)c3ccc(Cl)cc3)CC2)cc1", "Ratio Ki": 5.9}]}, {"target": "T1, Adenosine receptor A1 (Homo sapiens)", "assay": "Allosteric enhancing activity at human adenosine A1 receptor expressed in CHO cells assessed as increase in [3H]-2-chloro-N6-cyclopentyladenosine Bmax at 10 uM after 90 mins relative to control", "assay_type": "cell-based", "values": [{"smiles": "Nc1sc(-c2ccc(Cl)cc2)c(CN2CCN(c3ccc(F)cc3)CC2)c1C(=O)c1ccc(Cl)cc1", "fold change (FC)": 9.5}, {"smiles": "Cc1sc(N)c(C(=O)c2cccc(C(F)(F)F)c2)c1C", "fold change (FC)": 1.3}, {"smiles": "Nc1sc(Br)c(CN2CCN(c3ccccc3)CC2)c1C(=O)c1ccc(Cl)cc1", "fold change (FC)": 4.7}, {"smiles": "Nc1sc(-c2ccc(Cl)cc2)c(CN2CCN(c3ccc(Cl)c(C(F)(F)F)c3)CC2)c1C(=O)c1ccc(Cl)cc1", "fold change (FC)": 10.1}, {"smiles": "CCc1sc(N)c(C(=O)c2ccc(Cl)cc2)c1CN1CCN(c2ccc(F)cc2)CC1", "fold change (FC)": 6.7}, {"smiles": "Nc1sc(Br)c(CN2CCN(c3ccc(F)cc3)CC2)c1C(=O)c1ccc(Cl)cc1", "fold change (FC)": 4.4}, {"smiles": "Nc1sc(-c2ccc(Cl)cc2)c(CN2CCN(c3cccc(C(F)(F)F)c3)CC2)c1C(=O)c1ccc(Cl)cc1", "fold change (FC)": 11.8}, {"smiles": "Cc1ccc(N2CCN(Cc3c(C)sc(N)c3C(=O)c3ccc(Cl)cc3)CC2)cc1", "fold change (FC)": 6.6}]}, {"target": "T2, Adenosine receptor A3 (Homo sapiens) (UniProt P0DMS8)", "T2 sequence (whole entry)": "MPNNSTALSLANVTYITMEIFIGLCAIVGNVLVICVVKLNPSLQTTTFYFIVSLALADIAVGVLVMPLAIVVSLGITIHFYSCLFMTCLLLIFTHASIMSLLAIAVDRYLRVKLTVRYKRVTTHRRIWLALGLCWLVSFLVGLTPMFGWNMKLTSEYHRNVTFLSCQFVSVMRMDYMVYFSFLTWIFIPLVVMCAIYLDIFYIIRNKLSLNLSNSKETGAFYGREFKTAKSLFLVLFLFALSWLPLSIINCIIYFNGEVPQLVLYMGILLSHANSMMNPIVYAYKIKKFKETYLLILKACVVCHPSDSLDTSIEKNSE", "assay": "Displacement of [3H]MRE-3008-F20 from human adenosine A3 receptor expressed in CHO cells at 10 uM after 120 mins by scintillation counting", "assay_type": "cell-based", "units": {"inhibition": "%"}, "values": [{"smiles": "Nc1sc(-c2ccc(Cl)cc2)c(CN2CCN(c3ccc(F)cc3)CC2)c1C(=O)c1ccc(Cl)cc1", "inhibition": "< 12"}, {"smiles": "Nc1sc(Br)c(CN2CCN(c3ccccc3)CC2)c1C(=O)c1ccc(Cl)cc1", "inhibition": "< 12"}, {"smiles": "Nc1sc(-c2ccc(Cl)cc2)c(CN2CCN(c3ccc(Cl)c(C(F)(F)F)c3)CC2)c1C(=O)c1ccc(Cl)cc1", "inhibition": "< 12"}, {"smiles": "CCc1sc(N)c(C(=O)c2ccc(Cl)cc2)c1CN1CCN(c2ccc(F)cc2)CC1", "inhibition": "< 12"}, {"smiles": "Nc1sc(Br)c(CN2CCN(c3ccc(F)cc3)CC2)c1C(=O)c1ccc(Cl)cc1", "inhibition": "< 12"}, {"smiles": "Nc1sc(-c2ccc(Cl)cc2)c(CN2CCN(c3cccc(C(F)(F)F)c3)CC2)c1C(=O)c1ccc(Cl)cc1", "inhibition": "< 12"}, {"smiles": "Cc1ccc(N2CCN(Cc3c(C)sc(N)c3C(=O)c3ccc(Cl)cc3)CC2)cc1", "inhibition": "< 12"}]}, {"target": "Adenosine receptor A2a (Homo sapiens) (UniProt P29274)", "sequence (P29274 whole entry)": "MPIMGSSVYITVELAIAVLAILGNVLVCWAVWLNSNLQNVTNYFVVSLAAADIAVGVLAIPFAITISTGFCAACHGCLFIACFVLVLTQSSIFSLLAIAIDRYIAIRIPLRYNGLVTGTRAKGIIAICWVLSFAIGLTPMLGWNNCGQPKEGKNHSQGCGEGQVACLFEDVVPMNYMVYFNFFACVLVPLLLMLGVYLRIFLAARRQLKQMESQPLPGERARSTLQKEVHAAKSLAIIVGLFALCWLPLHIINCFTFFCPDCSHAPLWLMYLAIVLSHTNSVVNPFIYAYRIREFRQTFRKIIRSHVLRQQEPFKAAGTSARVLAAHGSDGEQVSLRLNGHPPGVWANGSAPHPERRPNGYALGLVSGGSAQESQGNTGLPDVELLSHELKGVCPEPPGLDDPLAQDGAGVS", "assay": "Displacement of [3H]ZM241385 from human adenosine A2A receptor expressed in CHO cells at 10 uM after 120 mins by scintillation counting", "assay_type": "cell-based", "values": [{"smiles": "Nc1sc(-c2ccc(Cl)cc2)c(CN2CCN(c3ccc(F)cc3)CC2)c1C(=O)c1ccc(Cl)cc1", "inhibition": "< 12%"}, {"smiles": "Cc1sc(N)c(C(=O)c2cccc(C(F)(F)F)c2)c1C", "inhibition": "inactive"}, {"smiles": "Nc1sc(Br)c(CN2CCN(c3ccccc3)CC2)c1C(=O)c1ccc(Cl)cc1", "inhibition": "< 12%"}, {"smiles": "Nc1sc(-c2ccc(Cl)cc2)c(CN2CCN(c3ccc(Cl)c(C(F)(F)F)c3)CC2)c1C(=O)c1ccc(Cl)cc1", "inhibition": "< 12%"}, {"smiles": "CCc1sc(N)c(C(=O)c2ccc(Cl)cc2)c1CN1CCN(c2ccc(F)cc2)CC1", "inhibition": "< 12%"}, {"smiles": "Nc1sc(Br)c(CN2CCN(c3ccc(F)cc3)CC2)c1C(=O)c1ccc(Cl)cc1", "inhibition": "< 12%"}, {"smiles": "Nc1sc(-c2ccc(Cl)cc2)c(CN2CCN(c3cccc(C(F)(F)F)c3)CC2)c1C(=O)c1ccc(Cl)cc1", "inhibition": "< 12%"}, {"smiles": "Cc1ccc(N2CCN(Cc3c(C)sc(N)c3C(=O)c3ccc(Cl)cc3)CC2)cc1", "inhibition": "< 12%"}]}, {"target": "T1, Adenosine receptor A1 (Homo sapiens)", "assay": "Displacement of [3H]DPCPX from human adenosine A1 receptor expressed in CHO cells at 10 uM after 120 mins by scintillation counting", "assay_type": "cell-based", "values": [{"smiles": "Nc1sc(-c2ccc(Cl)cc2)c(CN2CCN(c3ccc(F)cc3)CC2)c1C(=O)c1ccc(Cl)cc1", "inhibition": "< 12%"}, {"smiles": "Cc1sc(N)c(C(=O)c2cccc(C(F)(F)F)c2)c1C", "inhibition": "inactive"}, {"smiles": "Nc1sc(Br)c(CN2CCN(c3ccccc3)CC2)c1C(=O)c1ccc(Cl)cc1", "inhibition": "< 12%"}, {"smiles": "Nc1sc(-c2ccc(Cl)cc2)c(CN2CCN(c3ccc(Cl)c(C(F)(F)F)c3)CC2)c1C(=O)c1ccc(Cl)cc1", "inhibition": "< 12%"}, {"smiles": "CCc1sc(N)c(C(=O)c2ccc(Cl)cc2)c1CN1CCN(c2ccc(F)cc2)CC1", "inhibition": "< 12%"}, {"smiles": "Nc1sc(Br)c(CN2CCN(c3ccc(F)cc3)CC2)c1C(=O)c1ccc(Cl)cc1", "inhibition": "< 12%"}, {"smiles": "Nc1sc(-c2ccc(Cl)cc2)c(CN2CCN(c3cccc(C(F)(F)F)c3)CC2)c1C(=O)c1ccc(Cl)cc1", "inhibition": "< 12%"}, {"smiles": "Cc1ccc(N2CCN(Cc3c(C)sc(N)c3C(=O)c3ccc(Cl)cc3)CC2)cc1", "inhibition": "< 12%"}]}, {"target": "T1, Adenosine receptor A1 (Homo sapiens)", "assay": "Allosteric enhancing activity at human adenosine A1 receptor expressed in CHO cells assessed as inhibition of forskolin-stimulated cAMP accumulation at 100 nM incubated for 10 mins prior to forskolin-stimulation measured after 5 mins by competition protein binding assay in presence of 2-chloro-N6-cyclopentyladenosine", "assay_type": "functional, cell-based", "units": {"inhibition": "%"}, "values": [{"smiles": "Nc1sc(-c2ccc(Cl)cc2)c(CN2CCN(c3ccc(F)cc3)CC2)c1C(=O)c1ccc(Cl)cc1", "inhibition": 68}, {"smiles": "Cc1sc(N)c(C(=O)c2cccc(C(F)(F)F)c2)c1C", "inhibition": 22}, {"smiles": "Nc1sc(Br)c(CN2CCN(c3ccccc3)CC2)c1C(=O)c1ccc(Cl)cc1", "inhibition": 43}, {"smiles": "Nc1sc(-c2ccc(Cl)cc2)c(CN2CCN(c3ccc(Cl)c(C(F)(F)F)c3)CC2)c1C(=O)c1ccc(Cl)cc1", "inhibition": 70}, {"smiles": "CCc1sc(N)c(C(=O)c2ccc(Cl)cc2)c1CN1CCN(c2ccc(F)cc2)CC1", "inhibition": 55}, {"smiles": "Nc1sc(Br)c(CN2CCN(c3ccc(F)cc3)CC2)c1C(=O)c1ccc(Cl)cc1", "inhibition": 41}, {"smiles": "Nc1sc(-c2ccc(Cl)cc2)c(CN2CCN(c3cccc(C(F)(F)F)c3)CC2)c1C(=O)c1ccc(Cl)cc1", "inhibition": 78}, {"smiles": "Cc1ccc(N2CCN(Cc3c(C)sc(N)c3C(=O)c3ccc(Cl)cc3)CC2)cc1", "inhibition": 58}]}, {"target": "T1, Adenosine receptor A1 (Homo sapiens)", "assay": "Allosteric enhancing activity at human adenosine A1 receptor expressed in CHO cells assessed as inhibition of forskolin-stimulated cAMP accumulation at 10 uM incubated for 10 mins prior to forskolin-stimulation measured after 5 mins by competition protein binding assay", "assay_type": "functional, cell-based", "units": {"inhibition": "%"}, "values": [{"smiles": "Nc1sc(-c2ccc(Cl)cc2)c(CN2CCN(c3ccc(F)cc3)CC2)c1C(=O)c1ccc(Cl)cc1", "inhibition": 71}, {"smiles": "Nc1sc(Br)c(CN2CCN(c3ccccc3)CC2)c1C(=O)c1ccc(Cl)cc1", "inhibition": 48}, {"smiles": "Nc1sc(-c2ccc(Cl)cc2)c(CN2CCN(c3ccc(Cl)c(C(F)(F)F)c3)CC2)c1C(=O)c1ccc(Cl)cc1", "inhibition": 76}, {"smiles": "CCc1sc(N)c(C(=O)c2ccc(Cl)cc2)c1CN1CCN(c2ccc(F)cc2)CC1", "inhibition": 63}, {"smiles": "Nc1sc(Br)c(CN2CCN(c3ccc(F)cc3)CC2)c1C(=O)c1ccc(Cl)cc1", "inhibition": 46}, {"smiles": "Nc1sc(-c2ccc(Cl)cc2)c(CN2CCN(c3cccc(C(F)(F)F)c3)CC2)c1C(=O)c1ccc(Cl)cc1", "inhibition": 81}, {"smiles": "Cc1ccc(N2CCN(Cc3c(C)sc(N)c3C(=O)c3ccc(Cl)cc3)CC2)cc1", "inhibition": 61}]}]}
